# Read-outs that look alike come from different tables or passages of the source.
# Key:
# [1] = biological target: PI3Kα (Homo sapiens, UniProt P42336); test: PI3K-alpha fluorescence polarization assay; assay type: biochemical; details: read-out: PI3Kα Median IC50
# [2] = biological target: PI3Kγ (Homo sapiens, UniProt P48736); test: PI3K-gamma fluorescence polarization assay; assay type: biochemical; details: read-out: PI3Kγ Median IC50
# [3] = biological target: mTOR (Homo sapiens, UniProt P42345); test: mTOR enzyme assay (DELFIA format, His6-S6K substrate); assay type: biochemical
# [4] = read-out: mTOR Kinase Median IC50
# Sequence of PI3Kγ (P48736 whole entry, species assumed): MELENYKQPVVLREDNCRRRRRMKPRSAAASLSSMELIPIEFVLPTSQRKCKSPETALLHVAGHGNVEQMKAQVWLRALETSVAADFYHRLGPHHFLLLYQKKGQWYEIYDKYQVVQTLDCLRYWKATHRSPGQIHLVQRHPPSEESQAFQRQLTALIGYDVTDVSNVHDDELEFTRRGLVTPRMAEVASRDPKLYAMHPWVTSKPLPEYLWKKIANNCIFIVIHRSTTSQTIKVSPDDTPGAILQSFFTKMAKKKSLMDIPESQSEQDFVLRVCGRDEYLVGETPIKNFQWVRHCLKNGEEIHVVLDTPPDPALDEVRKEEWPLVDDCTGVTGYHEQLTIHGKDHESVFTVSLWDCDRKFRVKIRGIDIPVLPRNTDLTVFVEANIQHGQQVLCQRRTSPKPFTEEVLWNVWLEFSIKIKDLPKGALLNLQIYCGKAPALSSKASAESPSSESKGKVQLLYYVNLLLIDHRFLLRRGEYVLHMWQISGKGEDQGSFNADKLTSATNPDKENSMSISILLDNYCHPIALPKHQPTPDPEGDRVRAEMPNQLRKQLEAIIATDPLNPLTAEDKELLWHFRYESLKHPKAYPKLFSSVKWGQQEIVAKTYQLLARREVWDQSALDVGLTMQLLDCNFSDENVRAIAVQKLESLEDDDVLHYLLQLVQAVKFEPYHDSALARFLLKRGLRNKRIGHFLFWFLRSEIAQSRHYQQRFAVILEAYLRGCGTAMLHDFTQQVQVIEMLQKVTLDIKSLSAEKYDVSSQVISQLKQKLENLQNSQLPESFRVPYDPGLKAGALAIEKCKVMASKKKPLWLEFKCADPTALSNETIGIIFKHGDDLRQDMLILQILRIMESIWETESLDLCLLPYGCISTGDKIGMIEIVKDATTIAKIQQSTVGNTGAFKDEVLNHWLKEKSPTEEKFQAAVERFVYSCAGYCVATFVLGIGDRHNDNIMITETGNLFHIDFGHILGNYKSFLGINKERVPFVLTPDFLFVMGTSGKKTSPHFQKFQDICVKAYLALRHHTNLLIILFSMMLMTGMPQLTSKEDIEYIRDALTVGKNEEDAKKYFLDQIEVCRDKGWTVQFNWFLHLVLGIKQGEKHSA
# Sequence of PI3Kα (P42336 whole entry, species assumed): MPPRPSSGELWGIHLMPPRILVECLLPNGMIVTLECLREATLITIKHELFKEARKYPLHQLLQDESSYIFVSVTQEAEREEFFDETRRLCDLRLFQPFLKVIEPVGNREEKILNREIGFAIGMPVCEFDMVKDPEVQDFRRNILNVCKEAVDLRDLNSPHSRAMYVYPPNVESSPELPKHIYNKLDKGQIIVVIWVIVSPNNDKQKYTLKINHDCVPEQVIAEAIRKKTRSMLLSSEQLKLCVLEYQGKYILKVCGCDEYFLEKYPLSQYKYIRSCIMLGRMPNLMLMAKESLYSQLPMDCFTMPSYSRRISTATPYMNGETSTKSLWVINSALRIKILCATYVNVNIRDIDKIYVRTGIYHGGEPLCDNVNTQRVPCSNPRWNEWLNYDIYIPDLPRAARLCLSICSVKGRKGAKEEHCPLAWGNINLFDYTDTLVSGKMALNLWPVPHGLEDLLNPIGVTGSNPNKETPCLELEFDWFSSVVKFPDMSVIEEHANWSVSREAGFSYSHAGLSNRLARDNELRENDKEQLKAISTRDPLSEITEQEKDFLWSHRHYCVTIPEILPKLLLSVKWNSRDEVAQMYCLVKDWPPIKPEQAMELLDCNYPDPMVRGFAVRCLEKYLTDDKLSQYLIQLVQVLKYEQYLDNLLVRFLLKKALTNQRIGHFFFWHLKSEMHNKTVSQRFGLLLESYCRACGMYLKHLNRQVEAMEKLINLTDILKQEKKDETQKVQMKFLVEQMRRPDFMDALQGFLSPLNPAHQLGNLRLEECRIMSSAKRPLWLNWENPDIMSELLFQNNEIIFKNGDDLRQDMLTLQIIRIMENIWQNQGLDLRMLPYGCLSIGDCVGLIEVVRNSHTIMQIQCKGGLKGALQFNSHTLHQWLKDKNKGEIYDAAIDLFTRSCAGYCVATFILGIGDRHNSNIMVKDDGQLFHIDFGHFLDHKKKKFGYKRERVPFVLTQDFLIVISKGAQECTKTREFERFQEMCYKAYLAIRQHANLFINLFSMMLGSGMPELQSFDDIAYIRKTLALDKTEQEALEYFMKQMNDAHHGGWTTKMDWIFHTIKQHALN
# Sequence of PI3Kα (P27986 whole entry partner, species assumed): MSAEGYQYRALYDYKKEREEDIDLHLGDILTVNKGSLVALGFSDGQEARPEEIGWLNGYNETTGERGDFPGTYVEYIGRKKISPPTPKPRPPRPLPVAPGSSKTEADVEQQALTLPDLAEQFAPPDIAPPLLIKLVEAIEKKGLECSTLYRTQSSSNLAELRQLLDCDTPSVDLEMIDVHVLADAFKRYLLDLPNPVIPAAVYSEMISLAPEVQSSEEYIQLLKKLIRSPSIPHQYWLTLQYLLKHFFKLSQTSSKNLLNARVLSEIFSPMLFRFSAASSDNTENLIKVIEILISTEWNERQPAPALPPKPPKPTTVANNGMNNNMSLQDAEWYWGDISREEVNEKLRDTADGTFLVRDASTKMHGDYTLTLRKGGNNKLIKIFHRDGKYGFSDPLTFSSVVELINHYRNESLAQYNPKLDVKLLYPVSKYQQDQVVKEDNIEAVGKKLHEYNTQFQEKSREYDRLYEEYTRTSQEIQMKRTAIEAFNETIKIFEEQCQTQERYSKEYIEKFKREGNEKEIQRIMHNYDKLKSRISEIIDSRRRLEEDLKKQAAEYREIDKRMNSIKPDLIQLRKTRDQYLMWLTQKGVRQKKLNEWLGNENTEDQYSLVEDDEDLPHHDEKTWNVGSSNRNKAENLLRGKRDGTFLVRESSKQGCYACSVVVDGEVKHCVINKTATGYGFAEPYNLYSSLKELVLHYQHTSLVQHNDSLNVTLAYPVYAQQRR
Structure (SMILES),IC50 [1] [nM],IC50 [2] [nM],melting point,"IC50 [3, 4] [nM]",IC50 [3] [nM]
"CN(C(=O)C1CCN(c2ccnc3c2c(/C=C2\Oc4ccc(NC(=O)Nc5cccnc5)cc4C2=O)cn3C)CC1)c1cccnc1 [Compound 269, N-methyl-1-{1-methyl-3-[(Z)-{3-oxo-5-[(pyridin-3-ylcarbamoyl)amino]-1-benzofuran-2(3H)-ylidene}methyl]-1H-pyrrolo[2,3-b]pyridin-4-yl}-N-pyridin-3-ylpiperidine-4-carboxamide]",4960,5750,184 to 194 °C,13,–
"Cn1cc(/C=C2\Oc3ccc(NC(=O)Nc4cccnc4)cc3C2=O)c2c(N3CCC(C(=O)NCc4cccnc4)CC3)ccnc21 [Compound 270, 1-{1-methyl-3-[(Z)-{3-oxo-5-[(pyridin-3-ylcarbamoyl)amino]-1-benzofuran-2(3H)-ylidene}methyl]-1H-pyrrolo[2,3-b]pyridin-4-yl}-N-(pyridin-3-ylmethyl)piperidine-4-carboxamide]",> 10000,> 10000,187 to 194 °C,6,–
"Cn1cc(/C=C2\Oc3ccc(NC(=O)Nc4cccnc4)cc3C2=O)c2c(N3CCC(C(=O)NCc4ccncc4)CC3)ccnc21 [Compound 271, 1-{1-methyl-3-[(Z)-{3-oxo-5-[(pyridin-3-ylcarbamoyl)amino]-1-benzofuran-2(3H)-ylidene}methyl]-1H-pyrrolo[2,3-b]pyridin-4-yl}-N-(pyridin-4-ylmethyl)piperidine-4-carboxamide]",4040,3910,208 to 216 °C,9,–
"CN1CC2CC1CN2C(=O)C1CCN(c2ccnc3c2c(/C=C2\Oc4ccc(NC(=O)Nc5cccnc5)cc4C2=O)cn3C)CC1 (centres unmarked) [Compound 272, 1-{(2Z)-2-[(1-methyl-4-{4-[(5-methyl-2,5-diazabicyclo[2.2.1]hept-2-yl)carbonyl]piperidin-1-yl}-1H-pyrrolo[2,3-b]pyridin-3-yl)methylidene]-3-oxo-2,3-dihydro-1-benzofuran-5-yl}-3-pyridin-3-ylurea]",> 10000,2410,151 to 164 °C,19,–
"Cn1cc(/C=C2\Oc3ccc(NC(=O)Nc4cccnc4)cc3C2=O)c2c(N3C4CCCC3COC4)ccnc21 [Compound 276, 1-[(2Z)-2-{[1-methyl-4-(3-oxa-9-azabicyclo[3.3.1]non-9-yl)-1H-pyrrolo[2,3-b]pyridin-3-yl]methylidene}-3-oxo-2,3-dihydro-1-benzofuran-5-yl]-3-pyridin-3-ylurea]",2260,1120,240 to 245 °C (dec.),31.5,–
"Cn1cc(/C=C2\Oc3ccc(NC(=O)Nc4cccnc4)cc3C2=O)c2c(N3CC4CCC3CO4)ccnc21 (centres unmarked) [Compound 277, 1-[(2Z)-2-{[1-methyl-4-(2-oxa-5-azabicyclo[2.2.2]oct-5-yl)-1H-pyrrolo[2,3-b]pyridin-3-yl]methylidene}-3-oxo-2,3-dihydro-1-benzofuran-5-yl]-3-pyridin-3-ylurea]",296,2590,227 to 235 °C,7.5,–
"CNC(=O)Nc1ccc2c(c1)C(=O)/C(=C/c1cn(C)c3nccc(N4CC5CCC4CO5)c13)O2 (centres unmarked) [Compound 279, 1-methyl-3-[(2Z)-2-{[1-methyl-4-(2-oxa-5-azabicyclo[2.2.2]oct-5-yl)-1H-pyrrolo[2,3-b]pyridin-3-yl]methylidene}-3-oxo-2,3-dihydro-1-benzofuran-5-yl]urea]",128,643,197 to 205 °C (dec.),11,–
"Cn1cc(/C=C2\Oc3ccc(NC(=O)Nc4cccnc4)cc3C2=O)c2c(N3C4CCC3COC4)ccnc21 [Compound 280, 1-[(2Z)-2-{[1-methyl-4-(3-oxa-8-azabicyclo[3.2.1]oct-8-yl)-1H-pyrrolo[2,3-b]pyridin-3-yl]methylidene}-3-oxo-2,3-dihydro-1-benzofuran-5-yl]-3-pyridin-3-ylurea]",179,995,250 to 255 °C (dec.),–,42
"CNC(=O)Nc1ccc2c(c1)C(=O)/C(=C/c1cn(C)c3nccc(N4C5CCC4COC5)c13)O2 [Compound 281, 1-methyl-3-[(2Z)-2-{[1-methyl-4-(3-oxa-8-azabicyclo[3.2.1]oct-8-yl)-1H-pyrrolo[2,3-b]pyridin-3-yl]methylidene}-3-oxo-2,3-dihydro-1-benzofuran-5-yl]urea]",104,1710,226 to 232 °C (dec.),31,–
"Cn1cc(/C=C2\Oc3ccc(NC(=O)Nc4cccnc4)cc3C2=O)c2c(N3CC4COC(C3)O4)ccnc21 (centres unmarked) [Compound 282, 1-[(2Z)-2-{[4-(6,8-dioxa-3-azabicyclo[3.2.1]oct-3-yl)-1-methyl-1H-pyrrolo[2,3-b]pyridin-3-yl]methylidene}-3-oxo-2,3-dihydro-1-benzofuran-5-yl]-3-pyridin-3-ylurea]",288,642,224 to 227 °C (dec.),21,–
"Cn1cc(/C=C2\Oc3ccc(NC(=O)Nc4cccnc4)cc3C2=O)c2c(N3CC4CC3CO4)ccnc21 (centres unmarked) [Compound 283, 1-[(2Z)-2-{[1-methyl-4-(2-oxa-5-azabicyclo[2.2.1]hept-5-yl)-1H-pyrrolo[2,3-b]pyridin-3-yl]methylidene}-3-oxo-2,3-dihydro-1-benzofuran-5-yl]-3-pyridin-3-ylurea]",350,779,218 to 222 °C (dec.),27,–
"CNC(=O)Nc1ccc2c(c1)C(=O)/C(=C/c1cn(C)c3nccc(N4CC5CC4CO5)c13)O2 (centres unmarked) [Compound 284, 1-methyl-3-[(2Z)-2-{[1-methyl-4-(2-oxa-5-azabicyclo[2.2.1]hept-5-yl)-1H-pyrrolo[2,3-b]pyridin-3-yl]methylidene}-3-oxo-2,3-dihydro-1-benzofuran-5-yl]urea]",275,721,242 to 247 °C (dec.),50,–
"Cn1cc(/C=C2\Oc3ccc(NC(=O)Nc4cccnc4)cc3C2=O)c2c(N3CCC(C(=O)N4C5CCC4COC5)CC3)ccnc21 [Compound 292, 1-[(2Z)-2-({1-methyl-4-[4-(3-oxa-8-azabicyclo[3.2.1]oct-8-ylcarbonyl)piperidin-1-yl]-1H-pyrrolo[2,3-b]pyridin-3-yl}methylidene)-3-oxo-2,3-dihydro-1-benzofuran-5-yl]-3-pyridin-3-ylurea]",3480,> 10000,197 to 203 °C,5.4,–
"Cn1cc(/C=C2\Oc3ccc(NC(=O)Nc4cccnc4)cc3C2=O)c2c(N3CC4CNCC(C3)O4)ccnc21 [Compound 293, 1-[(2Z)-2-{[1-methyl-4-(9-oxa-3,7-diazabicyclo[3.3.1]non-3-yl)-1H-pyrrolo[2,3-b]pyridin-3-yl]methylidene}-3-oxo-2,3-dihydro-1-benzofuran-5-yl]-3-pyridin-3-ylurea]",> 10000,862,193 to 200 °C,300,–
"CCC1(CC)CN(c2ccnc3c2c(/C=C2\Oc4ccc(NC(=O)Nc5cccnc5)cc4C2=O)cn3C)CCO1 [Compound 295, 1-[(2Z)-2-{[4-(2,2-diethylmorpholin-4-yl)-1-methyl-1H-pyrrolo[2,3-b]pyridin-3-yl]methylidene}-3-oxo-2,3-dihydro-1-benzofuran-5-yl]-3-pyridin-3-ylurea]",721,1230,225 to 228 °C,21.5,–
"C[C@@H]1CN(c2ccnc3c2c(/C=C2\Oc4ccc(NC(=O)Nc5cccnc5)cc4C2=O)cn3C)C[C@H](C)O1 [Compound 296, 1-[(2Z)-2-({4-[(2R,6S)-2,6-dimethylmorpholin-4-yl]-1-methyl-1H-pyrrolo[2,3-b]pyridin-3-yl}methylidene)-3-oxo-2,3-dihydro-1-benzofuran-5-yl]-3-pyridin-3-ylurea]",239,1160,255 to 260 °C,19,–
"COCCC1CN(c2ccnc3c2c(/C=C2\Oc4ccc(NC(=O)Nc5cccnc5)cc4C2=O)cn3C)CCO1 (centres unmarked) [Compound 297, 1-[(2Z)-2-({4-[2-(2-methoxyethyl)morpholin-4-yl]-1-methyl-1H-pyrrolo[2,3-b]pyridin-3-yl}methylidene)-3-oxo-2,3-dihydro-1-benzofuran-5-yl]-3-pyridin-3-ylurea]",884,1930,225 to 260 °C,25.5,–
"Cn1cc(/C=C2\Oc3ccc(NC(=O)Nc4cccnc4)cc3C2=O)c2c(N3CCOC(C)(C)C3)ccnc21 [Compound 301, 1-[(2Z)-2-{[4-(2,2-dimethylmorpholin-4-yl)-1-methyl-1H-pyrrolo[2,3-b]pyridin-3-yl]methylidene}-3-oxo-2,3-dihydro-1-benzofuran-5-yl]-3-pyridin-3-ylurea]",566,1110,222 to 226 °C,13,–
"C[C@@H]1CN(C(=O)C2CCN(c3ccnc4c3c(/C=C3\Oc5cccc(O)c5C3=O)cn4C)CC2)C[C@H](C)O1 [Compound 302, (2Z)-2-{[4-(4-{[(2R,6S)-2,6-dimethylmorpholin-4-yl]carbonyl}piperidin-1-yl)-1-methyl-1H-pyrrolo[2,3-b]pyridin-3-yl]methylidene}-4-hydroxy-1-benzofuran-3(2H)-one]",223,396,162 to 166 °C,3.2,–
"C[C@@H]1CN(C(=O)c2ccc(-c3ccnc4c3c(/C=C3\Oc5cccc(O)c5C3=O)cn4C)cc2)C[C@H](C)O1 [Compound 303, (2Z)-2-{[4-(4-{[(2R,6S)-2,6-dimethylmorpholin-4-yl]carbonyl}phenyl)-1-methyl-1H-pyrrolo[2,3-b]pyridin-3-yl]methylidene}-4-hydroxy-1-benzofuran-3(2H)-one]",75,98,262 to 270 °C,2.3,–

# Reference: patent US20090298820A1, “3-SUBSTITUTED-1H-PYRROLO[2,3-B]PYRIDINE AND 3-SUBSTITUTED-1H-PYRROLO[3,2-B]PYRIDINE COMPOUNDS, THEIR USE AS MTOR KINASE AND PI3 KINASE INHIBITORS, AND THEIR SYNTHESES” (Wyeth, priority 2008, published 2009)
